Measurements from EP0170024A2, “Use of 2-acylaminomethyl-1,4-benzodiazepine derivatives for the production of pharmaceutical compositions and process for the preparation for pharmaceutical compositions” (priority 1984, dated 1986).
Like-named read-outs stand apart in the source and are kept apart here.

Tests used:
CCK receptor (pancreas) = biological target: T1, CCK receptor (pancreas) (Rattus norvegicus, UniProt P30551); experiment: CCK receptor binding (pancreas), 125I-CCK-33 receptor binding assay; conditions: for IC50: inhibition of 50% of the 125I-CCK binding, rat pancreas membranes, 37°C, 30 minutes
T1 construct: The whole pancreas of a male Sprague-Dawley rat (200-350 g), which had been sacrificed by decapitation, was dissected free of fat tissue and homogenized; from tissue; host or cells: rat pancreas membrane homogenate
T1 sequence (P30551 1-444): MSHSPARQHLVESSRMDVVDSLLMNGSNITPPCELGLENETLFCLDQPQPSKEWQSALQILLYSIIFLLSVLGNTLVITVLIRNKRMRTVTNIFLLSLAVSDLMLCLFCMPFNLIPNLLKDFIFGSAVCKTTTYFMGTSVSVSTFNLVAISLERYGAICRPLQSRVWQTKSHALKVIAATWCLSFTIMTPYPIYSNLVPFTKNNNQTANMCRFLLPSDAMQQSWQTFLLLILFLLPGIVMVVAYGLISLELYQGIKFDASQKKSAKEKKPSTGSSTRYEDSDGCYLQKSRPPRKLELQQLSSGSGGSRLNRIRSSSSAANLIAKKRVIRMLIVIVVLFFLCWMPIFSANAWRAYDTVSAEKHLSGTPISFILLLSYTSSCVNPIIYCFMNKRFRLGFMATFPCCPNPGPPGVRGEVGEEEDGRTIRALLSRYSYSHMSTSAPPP
Excerpt: Screening of these known compounds to determine biological activity and obtain an IC50 value for them to identify significant CCK-antagonism may be accomplished using an 125I-CCK receptor binding assay and in vitro isolated tissue preparations. These tests involve the following: • CCK receptor binding (pancreas) method
CCK-33 was radiolabeled with ^125I-Bolton Hunter reagent (2000 Ci/mmole), as described by Sankara et al. (J. Biol. Chem., 254, 9349-9351, 1979).
The whole pancreas of a male Sprague-Dawley rat (200-350 g), which had been sacrificed by decapitation, was dissected free of fat tissue and homogenized in 20 volumes of ice-cold 50 mM Tris HC1 (pH 7.7 at 25°C) with a Brinkmann Polytron PT-10. The homogenates were centrifuged at 48,000g for 10 minutes, then the resulting pellets were resuspended in Tris Buffer, centrifuged as above, and resuspended in 200 volumes of binding assay buffer (50 mM Tris HC1, pH 7.7 at 25°C, 5 mM dithiothreitol, 0.1 mM bacitracin, 1.2 mM phenylmethane sulfonyl fluoride and 0.5 mM o-phenanthroline).
All assays were run in duplicate or triplicate, and the reaction mixtures were incubated at 37°C for 30 minutes and centrifuged in a Beckman Microfuge (4 minutes) immediately after adding 1 ml of ice-cold incubation buffer. The supernatant was aspirated and discarded, and the pellets were counted with a Beckman gamma 5000.

[1] = tested on: CCK-8 response in guinea pig gall bladder; experiment: Isolated guinea pig gall bladder, CCK-8 contractile response; conditions: compound at 2 uM, added at least 5 minutes before CCK-8
Description: Isolated guinea pig gall bladder method
The two halves of the gall bladders, free of adjacent tissue, of male Hartley guinea pigs (400-600 q), which had been sacrificed by ? were suspended under 1 g tension along the axis of the bile duct in 5 ml organ bath, containing a Kreb's bicarbonate solution of 118 mM NaCl, 4.75 mM KC1, 2.54 CaCl2, 1.19 mM KH2PO4, 1.2 mM MgS04, 25 mM NaHC03 and 11 mM dextrose, which is maintained at 32°C and bubbled with a mixture of 95% 02 and 5% C02. The tissues were washed every 10 minutes for 1 hour to obtain equilibrium prior to the beginning of the study and the isometric contractions of the strips were recorded using Statham (60 g:0.12 mm) strain gauges and a Hewlett-Packard 77588 recorder.
CCK-8 was added cumulatively to the baths and the EC50's were determined using regression analysis. After washout (every 10 minutes-for 1 hour), the compound to be tested was added at least 5 minutes before the addition of CCK-8 and the EC50 of CCK-8 in the presence of the compound to be tested was also simillarly determined.

[2] = read-out: IC50 (µM) CCK Pancreas

SMILES | IC50 (CCK receptor (pancreas); [2]) [µM] | IC50 (CCK receptor (pancreas); IC50 (µM) CCK Pancreas) [µM] | also measured
CN1c2ccccc2C(c2ccccc2F)=NCC1CNC(=O)c1ccc(Cl)cc1 (stereo not drawn) [Compound 3, l-methyl-2-(4'-chlorophenylcarbonyl) aminomethyl-5-(2'-fluorophenyl)-3H-2,3-dihydro-1,4-benzodiazepine] | 0.8 |  | 
CN1c2ccccc2C(c2ccccc2F)=NCC1CNC(=O)c1ccccc1F (stereo not drawn) [Compound 4, l-methyl-2-(2-fluorophenyl-carbonyl)aminomethyl-5-(2'-fluorophenyl)-lH-2,3-dihydro-1,4-benzodiazepine] | 2.9 |  | 
CN1c2ccccc2C(c2ccccc2F)=NCC1CNC(=O)c1ccsc1 (single isomer, unassigned; (+)) [Compound 6, (+)-1-methyl-2-(thiophene-3-carbonyl)aminomethyl-5-(2-fluorophenyl)-lH-2,3-dihydro-1,4-benzodiazepine] |  | 13.9 | 
CN1c2ccccc2C(c2ccccc2F)=NCC1CNC(=O)c1ccsc1 (single isomer, unassigned; (-)) [Compound 1, (-)-1-methyl-2-(thiophene-3-carbonyl)aminomethyl-5-(2'-fluorophenyl)-1H-2,3-dihydro-1,4-benzodiazepine] |  | 0.1 | 
CN1c2ccccc2C(c2ccccc2F)=NCC1CNC(=O)c1ccsc1 (racemic) [Compound 2, (±)-1-methyl-2-(thiophene-3-carbonyl) aminomethyl-5-(2'-fluorophenyl)-2,3-dihydro-l,4-benzodiazepine] |  | 0.2 | mechanism of inhibition of specific 125I-CCK-33 receptor binding (Scatchard analysis) (CCK receptor (pancreas); absence and presence of 0.2 µM of compound, increased the KD without affecting the Bmax): competitively inhibited specific ^125I-CCK-33 receptor binding; effect on CCK dose response curve [1]: parallel shift to the right of the CCK dose response curve without reduction of the maximal contractile response
CN1c2ccccc2C(c2ccccc2F)=NCC1CNC(=O)c1cccnc1 (stereo not drawn) [Compound 7, 1-methyl-2-(pyridine-3-carbonyl)aminomethyl-5-(2'-fluorophenyl)-1H-2,3-dihydro-1,4-benzodiazepine] | 10 |  | 
CN1c2ccccc2C(c2ccccc2F)=NCC1CN1C(=O)c2ccccc2C1=O (stereo not drawn) [Compound 5, [(1-methyl-5-(2'-fluorophenyl)-lH-l,4-benzopin-2-yl)methyl]-lH-isoindole-1,3-(2H)-dione] | 4.3 |  | 
